PubChem BioAssay (NCI)
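Dose response: 5 concentrations. Exposure: 48 h. Format: 96-well plates. Endpoint: linear interpolation; highest concentration if not reached. TGI: concentration producing complete growth inhibition.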 Where a SMILES comes first, the peptide text is derived from it. [ ]: non-standard residue; d: D form. The star is where a group is joined. Cbz = O=C(OCc1ccccc1)*; Aib = CC(C)(N)C(=O)O

How the values were obtained:
Assay in all cases: NCI-60 cell line screen, 48 h
SK-MEL-2 melanoma = test system: SK-MEL-2 melanoma
SF-539 CNS = test system: SF-539 CNS
TK-10 renal = test system: TK-10 renal
SK-MEL-5 melanoma = test system: SK-MEL-5 melanoma
HOP-62 NSCLC = test system: HOP-62 NSCLC
UACC-257 melanoma = test system: UACC-257 melanoma
A498 renal = test system: A498 renal
MOLT-4 leukemia = test system: MOLT-4 leukemia
SF-268 CNS = test system: SF-268 CNS
M14 melanoma = test system: M14 melanoma
MALME-3M melanoma = test system: MALME-3M melanoma
DU-145 prostate = test system: DU-145 prostate
IGROV1 ovarian = test system: IGROV1 ovarian

## COc1ccc(/C=C(/c2ccc(OC)cc2)c2c(Cl)cc(Cl)c(/C(=C\c3ccc(OC)cc3)c3ccc(OC)cc3)c2N=Nc2ccccc2)cc1
SK-MEL-2 melanoma
  TGI: > 100 µM
SF-539 CNS
  TGI: > 100 µM
TK-10 renal
  TGI: > 100 µM
SK-MEL-5 melanoma
  TGI: > 100 µM
HOP-62 NSCLC
  TGI: > 100 µM
UACC-257 melanoma
  TGI: > 100 µM
A498 renal
  TGI: > 100 µM
MOLT-4 leukemia
  TGI: > 100 µM
SF-268 CNS
  TGI: > 100 µM
M14 melanoma
  TGI: > 100 µM
MALME-3M melanoma
  TGI: > 100 µM
DU-145 prostate
  TGI: > 100 µM
IGROV1 ovarian
  TGI: > 100 µM

## C=C1CC(O)C2C(=C)C(=O)OC2C2C(C)C(=O)CC12 (stereo not given)
SK-MEL-2 melanoma
  TGI: 38.2 µM
SF-539 CNS
  TGI: 54.2 µM
TK-10 renal
  TGI: 18.7 µM
SK-MEL-5 melanoma
  TGI: 47 µM
HOP-62 NSCLC
  TGI: 42.7 µM
UACC-257 melanoma
  TGI: 26.5 µM
A498 renal
  TGI: 63.3 µM
MOLT-4 leukemia
  TGI: 39.2 µM
SF-268 CNS
  TGI: 45.7 µM
M14 melanoma
  TGI: 25.6 µM
MALME-3M melanoma
  TGI: 31.5 µM
DU-145 prostate
  TGI: 46.8 µM
IGROV1 ovarian
  TGI: 36.2 µM

## Nc1ccn(CC(O)c2cc3ccccc3[nH]2)c(=O)n1 (stereo not given)
SK-MEL-2 melanoma
  TGI: > 100 µM
SF-539 CNS
  TGI: > 100 µM
TK-10 renal
  TGI: > 100 µM
SK-MEL-5 melanoma
  TGI: > 100 µM
HOP-62 NSCLC
  TGI: > 100 µM
UACC-257 melanoma
  TGI: > 100 µM
A498 renal
  TGI: > 100 µM
MOLT-4 leukemia
  TGI: > 100 µM
SF-268 CNS
  TGI: > 100 µM
M14 melanoma
  TGI: > 100 µM
MALME-3M melanoma
  TGI: > 100 µM
DU-145 prostate
  TGI: > 100 µM
IGROV1 ovarian
  TGI: > 100 µM

## COc1ccc(/C=C2\OC(=O)C(Cl)=C2c2ccc(OC)c(Cl)c2)cc1
SK-MEL-2 melanoma
  TGI: > 100 µM
SF-539 CNS
  TGI: 33.2 µM
TK-10 renal
  TGI: 45.6 µM
SK-MEL-5 melanoma
  TGI: 48.6 µM
HOP-62 NSCLC
  TGI: 35.7 µM
UACC-257 melanoma
  TGI: > 100 µM
A498 renal
  TGI: 39.1 µM
MOLT-4 leukemia
  TGI: > 100 µM
SF-268 CNS
  TGI: 44.3 µM
M14 melanoma
  TGI: 76.9 µM
MALME-3M melanoma
  TGI: 62.3 µM
DU-145 prostate
  TGI: > 100 µM
IGROV1 ovarian
  TGI: > 100 µM

## COc1ccc(/N=N/C(=NNC(=O)c2ccc(C)cc2)c2ccc(N(C)C)cc2)cc1
SK-MEL-2 melanoma
  TGI: > 100 µM
SF-539 CNS
  TGI: > 100 µM
TK-10 renal
  TGI: > 100 µM
SK-MEL-5 melanoma
  TGI: > 95.3 µM
HOP-62 NSCLC
  TGI: > 100 µM
UACC-257 melanoma
  TGI: > 91.4 µM
A498 renal
  TGI: > 100 µM
MOLT-4 leukemia
  TGI: > 72.5 µM
SF-268 CNS
  TGI: > 100 µM
M14 melanoma
  TGI: > 100 µM
MALME-3M melanoma
  TGI: 94.6 µM
DU-145 prostate
  TGI: > 72.7 µM
IGROV1 ovarian
  TGI: > 100 µM

## COC(=O)C(CNC(=O)/C=C/c1ccc(OC(C)=O)c(OC(C)=O)c1)NC(=O)/C=C/c1ccc(OC(C)=O)c(OC(C)=O)c1 (stereo not given)
SK-MEL-2 melanoma
  TGI: > 100 µM
SF-539 CNS
  TGI: > 100 µM
TK-10 renal
  TGI: > 100 µM
SK-MEL-5 melanoma
  TGI: > 100 µM
HOP-62 NSCLC
  TGI: > 100 µM
UACC-257 melanoma
  TGI: > 100 µM
A498 renal
  TGI: > 100 µM
MOLT-4 leukemia
  TGI: 81.5 µM
SF-268 CNS
  TGI: > 100 µM
M14 melanoma
  TGI: > 100 µM
MALME-3M melanoma
  TGI: > 100 µM
DU-145 prostate
  TGI: > 100 µM
IGROV1 ovarian
  TGI: > 100 µM

## CC1=NN(c2nc(N)nc(-c3cc4ccccc4oc3=N)n2)C(C)(C)C1
SK-MEL-2 melanoma
  TGI: 41.8 µM
SF-539 CNS
  TGI: 34.1 µM
TK-10 renal
  TGI: 38.4 µM
SK-MEL-5 melanoma
  TGI: 30.6 µM
HOP-62 NSCLC
  TGI: 37.2 µM
UACC-257 melanoma
  TGI: 31.4 µM
A498 renal
  TGI: 66.9 µM
MOLT-4 leukemia
  TGI: 34.6 µM
SF-268 CNS
  TGI: 36.7 µM
M14 melanoma
  TGI: 36 µM
MALME-3M melanoma
  TGI: 32.2 µM
DU-145 prostate
  TGI: 53.7 µM
IGROV1 ovarian
  TGI: 32.1 µM

## COc1cc2nc(-c3cccs3)nc(N3C(c4cc(OC)c(OC)c(OC)c4)=NNC(=O)c4ccccc43)c2cc1OC
SK-MEL-2 melanoma
  TGI: > 100 µM
SF-539 CNS
  TGI: 44.6 µM
TK-10 renal
  TGI: 51.9 µM
SK-MEL-5 melanoma
  TGI: > 100 µM
HOP-62 NSCLC
  TGI: > 100 µM
UACC-257 melanoma
  TGI: > 100 µM
A498 renal
  TGI: > 100 µM
MOLT-4 leukemia
  TGI: > 100 µM
SF-268 CNS
  TGI: > 100 µM
M14 melanoma
  TGI: > 100 µM
MALME-3M melanoma
  TGI: 45 µM
DU-145 prostate
  TGI: 91.1 µM
IGROV1 ovarian
  TGI: > 100 µM

## CC(C)=CCC[C@@H](C)C1=C(O)C(Nc2ccccc2)=C(C)C(=O)C1=O
SK-MEL-2 melanoma
  TGI: > 89.9 µM
SF-539 CNS
  TGI: 84.8 µM
TK-10 renal
  TGI: > 100 µM
SK-MEL-5 melanoma
  TGI: 55.6 µM
HOP-62 NSCLC
  TGI: > 55.2 µM
UACC-257 melanoma
  TGI: > 100 µM
A498 renal
  TGI: 87.1 µM
MOLT-4 leukemia
  TGI: > 72.2 µM
SF-268 CNS
  TGI: > 100 µM
M14 melanoma
  TGI: 34.9 µM
MALME-3M melanoma
  TGI: > 75 µM
DU-145 prostate
  TGI: > 74.2 µM
IGROV1 ovarian
  TGI: > 100 µM

## CNC(=O)C1OC(n2cnc3c(NCc4cccc(I)c4)nc(Cl)nc32)C(O)C1O (stereo not given)
SK-MEL-2 melanoma
  TGI: 27.8 µM
SF-539 CNS
  TGI: 23 µM
TK-10 renal
  TGI: 29.8 µM
SK-MEL-5 melanoma
  TGI: 42.2 µM
HOP-62 NSCLC
  TGI: 25.2 µM
UACC-257 melanoma
  TGI: 23.8 µM
A498 renal
  TGI: 33.7 µM
MOLT-4 leukemia
  TGI: 53.3 µM
SF-268 CNS
  TGI: 23.5 µM
M14 melanoma
  TGI: 21.9 µM
MALME-3M melanoma
  TGI: 19.6 µM
DU-145 prostate
  TGI: 50.4 µM
IGROV1 ovarian
  TGI: 27.2 µM

## CC(C)(NC(=O)C(C)(C)NC(=O)OCc1ccccc1)C(=O)O (Cbz-[Aib]-[Aib]-OH)
SK-MEL-2 melanoma
  TGI: > 100 µM
SF-539 CNS
  TGI: > 100 µM
TK-10 renal
  TGI: > 100 µM
SK-MEL-5 melanoma
  TGI: > 100 µM
HOP-62 NSCLC
  TGI: > 100 µM
UACC-257 melanoma
  TGI: > 100 µM
A498 renal
  TGI: > 100 µM
MOLT-4 leukemia
  TGI: > 100 µM
SF-268 CNS
  TGI: > 100 µM
M14 melanoma
  TGI: > 100 µM
MALME-3M melanoma
  TGI: > 100 µM
DU-145 prostate
  TGI: > 100 µM
IGROV1 ovarian
  TGI: > 100 µM

## O=c1[nH]c2ccc(C(F)(F)F)cc2nc1C(F)(F)F
SK-MEL-2 melanoma
  TGI: 43.1 µM
SF-539 CNS
  TGI: 64.2 µM
TK-10 renal
  TGI: > 100 µM
SK-MEL-5 melanoma
  TGI: 35.5 µM
HOP-62 NSCLC
  TGI: 55.5 µM
UACC-257 melanoma
  TGI: 64.4 µM
A498 renal
  TGI: 87.5 µM
MOLT-4 leukemia
  TGI: 63.8 µM
SF-268 CNS
  TGI: > 100 µM
M14 melanoma
  TGI: > 100 µM
MALME-3M melanoma
  TGI: 74.2 µM
DU-145 prostate
  TGI: > 100 µM
IGROV1 ovarian
  TGI: 95.3 µM

## O=C(O)c1cccc(S(=O)(=O)NN2C(=O)CSC2c2c(O)ccc3ccccc23)c1 (stereo not given)
SK-MEL-2 melanoma
  TGI: > 100 µM
SF-539 CNS
  TGI: 55.8 µM
TK-10 renal
  TGI: > 100 µM
SK-MEL-5 melanoma
  TGI: 62.5 µM
HOP-62 NSCLC
  TGI: > 100 µM
UACC-257 melanoma
  TGI: > 100 µM
A498 renal
  TGI: 46.2 µM
MOLT-4 leukemia
  TGI: 46.3 µM
SF-268 CNS
  TGI: 91.5 µM
M14 melanoma
  TGI: > 100 µM
MALME-3M melanoma
  TGI: 90.6 µM
DU-145 prostate
  TGI: > 100 µM
IGROV1 ovarian
  TGI: 45.1 µM

## O=C(O)C1CSC2(CCCN(Cc3ccccc3)C2)N1 (stereo not given)
SK-MEL-2 melanoma
  TGI: > 100 µM
SF-539 CNS
  TGI: > 100 µM
TK-10 renal
  TGI: > 100 µM
SK-MEL-5 melanoma
  TGI: > 100 µM
HOP-62 NSCLC
  TGI: > 100 µM
UACC-257 melanoma
  TGI: > 100 µM
A498 renal
  TGI: > 100 µM
MOLT-4 leukemia
  TGI: > 59.9 µM
SF-268 CNS
  TGI: > 100 µM
M14 melanoma
  TGI: > 100 µM
MALME-3M melanoma
  TGI: > 100 µM
DU-145 prostate
  TGI: > 100 µM
IGROV1 ovarian
  TGI: > 100 µM

## CC1CN=C(c2ccc(CN3CCC(CCCC4CCN(Cc5ccc(C6=NCC(C)N6)cc5)CC4)CC3)cc2)N1 (stereo not given)
SK-MEL-2 melanoma
  TGI: 52.3 µM
SF-539 CNS
  TGI: > 100 µM
TK-10 renal
  TGI: > 100 µM
SK-MEL-5 melanoma
  TGI: > 100 µM
HOP-62 NSCLC
  TGI: > 100 µM
UACC-257 melanoma
  TGI: 45.9 µM
A498 renal
  TGI: > 100 µM
MOLT-4 leukemia
  TGI: 50.1 µM
SF-268 CNS
  TGI: > 100 µM
M14 melanoma
  TGI: > 100 µM
MALME-3M melanoma
  TGI: > 100 µM
DU-145 prostate
  TGI: > 100 µM
IGROV1 ovarian
  TGI: > 100 µM
